From patent publication EP4570245A1, “COMBINED AGENTS WITH SYNERGISTIC EFFECT AGAINST GLIOMAS” (Eberhard Karls Universität Tübingen Medizinische Fakultät, priority 2023, dated 2025)
pIC50: −log10 of the molar value.

Experiments:
[1] = system: LN18 and T98G glioma cell lines; assay: Clonogenic survival assay of shRNA knockdown cells under CCNU treatment; type: cell-based
Experimental: The inventors seeded the cells one day prior to treatment. The inventors then treated the cells with the specified concentrations in serum-free medium for 24 hours. Afterward, they changed the medium back to one containing FCS and incubated the cells for a period ranging from 14 to 21 days. The inventors stained the colonies using 0.5% w/v crystal violet and counted them. Measurements were normalized to the respective vehicle control wells.
Based on the CRISPR/Cas9 screen result a loss of the Fanconi anemia DNA repair pathway should increase the effect of CCNU treatment. Therefore, the inventors induced an shRNA knockdown in LN18 and T98G glioma cell lines for FANCA or FANCD2. These knockdown cell lines were treated in clonogenic survival assays with CCNU in comparison to a control cell line transduced with a vector coding for an shRNA against Luciferase (Figure 2).

[2] = target: T1, RMI (RecQ-mediated genome instability protein) core complex/MM2 interaction (Homo sapiens, UniProt Q96E14+Q9H9A7); conditions: inhibitor of RMI core complex/MM2 interaction; MM2 is the binding site of RMI complex on FANCM; cited from earlier work
T1 sequence (Q9H9A7 473-625 limits assumed): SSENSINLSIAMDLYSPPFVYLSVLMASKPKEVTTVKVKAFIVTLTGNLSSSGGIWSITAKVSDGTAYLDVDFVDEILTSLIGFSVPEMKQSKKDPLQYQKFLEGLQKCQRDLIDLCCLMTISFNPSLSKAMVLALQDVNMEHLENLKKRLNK
T1 sequence (Q96E14 1-147): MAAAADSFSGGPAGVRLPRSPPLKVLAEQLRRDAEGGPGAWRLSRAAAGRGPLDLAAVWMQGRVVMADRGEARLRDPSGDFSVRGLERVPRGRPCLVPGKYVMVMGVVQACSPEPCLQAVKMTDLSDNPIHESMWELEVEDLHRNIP

O=NN(CCCl)C(=O)NC1CCCCC1 [CCNU, lomustine]
sensitivity to CCNU treatment ([1]; FANCA shRNA knockdown cell lines compared to the luciferase shRNA control): more sensitive | sensitivity to CCNU treatment ([1]; FANCD2 shRNA knockdown cell lines compared to the luciferase shRNA control): more sensitive

CCOC(=O)N1CCN(C(c2ccccn2)c2c(-c3ccccc3)n(O)c3ccccc23)CC1 (stereo not drawn) [PIP-199]
pIC50 [2]: 4.44
